Test results from patent US12624068B2, “Exon skipping by peptide nucleic acid derivatives” (OliPass Corporation, priority 2016, dated 2026).
{Fethoc} = N-terminal Fethoc capping group (publication's abbreviation); [C(1O2)] = modified PNA monomer acting as cytosine, C(pOq) type, 1O2; [A(5)] = modified PNA monomer acting as adenine, A(p) with p=5; [G(5)] = modified PNA monomer acting as guanine, G(p) type, p=5; [G(6)] = modified PNA monomer acting as guanine, G(p) with p=6; {NH2} = C-terminal unsubstituted amide (-NH2); [C(12)] = modified PNA cytosine monomer

Experiments:
[1] = system: rats with diabetes-induced peripheral neuropathic pain (DPNP); assay: Reversal of allodynia (von Frey) in rats with diabetes-induced peripheral neuropathic pain; format: in vivo, rat; settings: 100 pmole/Kg subcutaneous in Days 11, 13, 15, 17 and 19
Method: “SCN-ASO 7”, “SCN-ASO 8”, “SCN-ASO 21”, “SCN-ASO 35”, “SCN-ASO 36” and “SCN-ASO 37” were evaluated for their ability to reverse the allodynia in rats with diabetes-induced peripheral neuropathic pain (DPNP). In this example, the six SCN9A ASOs targeting a total of five splice sites were evaluated for their ability to reverse the allodynia induced by diabetic neuropathy in rats.
[Induction of DPNP and Grouping] Diabetes was induced in rats by an intraperitoneal injection of streptozotocin at 60 mg/Kg in Day 0. In Day 10, rats with DPNP were randomly assigned to […] of negative control (vehicle only), “SCN-ASO 7” 100 pmole/Kg, “SCN-ASO 8” 100 pmole/Kg, “SCN-ASO 21” 100 pmole/Kg, “SCN-ASO 35” 100 pmole/Kg, “SCN-ASO 36” 100 pmole/Kg, and “SCN-ASO 37” 100 pmole/Kg. The animals were grouped based on the von Frey scores of individual animals in Day 10. (N=8-9 per group) Allodynia was scored using a set of microfilaments (Touch Test®) according to the “Up & Down” method. [J Neurosci. Methods vol 53(1), 55-63 (1994)]
[ASO Treatment and von Frey Scoring] ASO solutions for injection were prepared by serially diluting aqueous mother stock solutions of the SCN9A ASOs to 100 nM in PBS (phosphate buffered saline). Animals were subcutaneously administered with ASO at 1 mL/Kg in Days 11, 13, 15, 17 and 19. Von Frey scoring was carried out 2 hours post dose in Days 11, 13, 15, 17 and 19. Von Frey scoring was additionally performed in Days 21 and 23 in order to assess the duration of the therapeutic activity after the final dosing. Daily von Frey scores were evaluated for statistical significance by student's t-test against the negative control group (vehicle only, i.e., PBS).

[2] = system: human IDO1 pre-mRNA; assay: IDO1 nested PCR for exon skipping in SKOV3 cells; format: cell-based; settings: 48 hours
Method: “IDO-ASO 1” was evaluated for its ability to induce exon skipping in SKOV3 cells (Cat. Number HTB-77, ATCC) by IDO1 nested PCR as follows. [Cell Culture & ASO Treatment] SKOV3 (human ovary adenocarcinoma) cells were subcultured in 60 mm culture dish containing 5 mL McCoy's 5A modified medium supplemented with 10% FBS, 1% streptomycin/penicillin, 1% L-glutamine, and 1% sodium pyruvate under 5% CO2 at 37° C., and treated with “IDO-ASO 1” for 48 hours at 0 zM (negative control), 10 zM, 100 zM or 1 aM. [RNA Extraction & cDNA Synthesis by One-Step RT-PCR] Total RNA was extracted from the cells using “Universal RNA Extraction Kit” (Cat. Number 9767, Takara) according to the manufacturer's instructions. […] NO: 114); and IDO-exon 10_reverse: (5'→3') […] [Nested PCR Amplification] 1 μL of cDNA was further amplified in a 20 μL nested PCR reaction (Cat. No. K2612, Bioneer) against a set of exon-specific primers [IDO-exon 4_forward: (5'→3') […] NO: 116); and IDO-exon 9_reverse: (5'→3') […] [Identification of Exon Skipping Product] The PCR products were subjected to electrophoretic separation on a 2% agarose gel. The bands of target size were collected and analyzed by Sanger sequencing. […] [ASO Treatment] SKOV3 cells grown in 60 mm culture dish were treated with “IDO-ASO 5” at 0 (negative control), 1, 3, 10, 30 or 100 aM for 48 hours. [cDNA Synthesis by One-step PCR] […] NO: 119); and IDO-exon 8_reverse: (5'→3') […] [Nested PCR Amplification] 1 μL of cDNA was further amplified in a 20 μL nested PCR (Cat. No. K2612, Bioneer) reaction using a set of exon-specific primers [IDO-exon 1n_forward: (5'→3') […] NO: 121); and IDO-exon 8n_reverse: (5'→3') […] “IDO-ASO 6” was evaluated for its ability to induce exon skipping in SKOV3 cells by IDO1 nested PCR as described in “IDO1 Example 3” unless noted otherwise.

[3] = system: B16F10 melanoma; assay: Antitumor activity against B16F10 melanoma in C57BL/6 mice; format: in vivo
Method: “PD-ASO 2” was evaluated for its antitumor activity in male C57BL/6 mice (4 weeks old) injected with B16F10 melanoma cells as provided below.
[Inoculation of B16F10 Melanoma Cells] B16F10 mouse melanoma cells (Cat. Number CRL-6475, ATCC) were maintained in 150 mm culture dish containing DMEM supplemented with 10% FBS, 1% streptomycin/penicillin, and 0.01 mg/ml bovine insulin. In Day 0, ca 1×10^5 B16F10 cells dissolved in 50 μL PBS were injected to each animal at the right rear flank.
[Grouping & ASO Treatment] In Day 3, the animals were randomly assigned by weight to 4 groups of 0 (negative control), 2, 10 and 50 pmole/Kg “PD-ASO 2”. (N=15 per group)
Injection solutions were prepared by serially diluting an aqueous mother stock solution of “PD-ASO 2” in PBS to 0 nM (PBS only), 0.4 nM, 2 nM and […] “PD-ASO 2” for the negative control, 2, 10 and 50 pmole/Kg “PD-ASO 2” group, respectively.
The animals were subcutaneously administered with an injection solution at 5 mL/Kg, 2× per week during Day 3 to Day 17.
[Anti-tumor Activity] The anti-tumor activity was assessed by changes in the tumor volume between each ASO treatment group and the negative control group.

[4] = 2 pmole/Kg subcutaneous, 2× per week Day 3 to Day 17

Substance: Fethoc-TA(5)A-A(5)AG(6)-TG(6)T-A(5)CC(1O2)-TA(5)A-A(5)-NH2 (TAAAAGTGTACCTAAA; splice-switching; all peptide nucleic acid (PNA), [A(5)] at 2, 4, 10, 14, 16, [G(6)] at 6, 8, [C(1O2)] at 12, 5' {Fethoc}, 3' {NH2}; peptide nucleic acid backbone) [SCN-ASO 21]
- maximum therapeutic efficacy based on the von Frey scores in Day 19 [1]: 93%

Substance: Fethoc-A(5)TA(5)-CC(1O2)C-TG(6)A-A(5)TC-TG(6)T-NH2 (ATACCCTGAATCTGT; splice-switching; all peptide nucleic acid (PNA), [A(5)] at 1, 3, 10, [C(1O2)] at 5, [G(6)] at 8, 14, 5' {Fethoc}, 3' {NH2}; peptide nucleic acid backbone) [SCN-ASO 36]
- maximum therapeutic efficacy based on the von Frey scores in Day 19 [1]: 0%

Substance: Fethoc-GA(5)T-A(5)TG-A(5)GT-G(6)CA(5)-C(1O2)TA(5)-A-NH2 (GATATGAGTGCACTAA; splice-switching; all peptide nucleic acid (PNA), [A(5)] at 2, 4, 7, 12, 15, [G(6)] at 10, [C(1O2)] at 13, 5' {Fethoc}, 3' {NH2}; peptide nucleic acid backbone) [SCN-ASO 35]
- maximum therapeutic efficacy based on the von Frey scores in Day 19 [1]: 52%

Substance: Fethoc-GG(6)C-AA(5)G-A(5)CC(1O2)-TGA(5)-T-NH2 (GGCAAGACCTGAT; splice-switching; all peptide nucleic acid (PNA), [G(6)] at 2, [A(5)] at 5, 7, 12, [C(1O2)] at 9, 5' {Fethoc}, 3' {NH2}; peptide nucleic acid backbone) [IDO-ASO 6]
- IDO1 exon skipping by nested PCR ([2]; 1 to 30 aM): clearly yielded a single mRNA splice variant lacking exons 2-5
- IDO1 exon skipping by nested PCR ([2]; 100 aM): the exon skipping band was not detected

Substance: Fethoc-CA(5)A-A(5)CC(1O2)-TTA(5)-CGG(6)-A-NH2 (CAAACCTTACGGA; splice-switching; all peptide nucleic acid (PNA), [A(5)] at 2, 4, 9, [C(1O2)] at 6, [G(6)] at 12, 5' {Fethoc}, 3' {NH2}; peptide nucleic acid backbone) [IDO-ASO 5]
- IDO1 exon skipping by nested PCR ([2]; 30 and 100 aM): clearly yielded the mRNA splice variants lacking exons 2-4 and exons 2-6

Substance: Fethoc-AA(5)G-A(5)C(12)T-CG(6)G-A(5)GC(1O2)-TA(5)-NH2 (AAGACTCGGAGCTA; all peptide nucleic acid (PNA), [A(5)] at 2, 4, 10, 14, [C(12)] at 5, [G(6)] at 8, [C(1O2)] at 12, 5' {Fethoc}, 3' {NH2}) [SCN-ASO 37]
- maximum therapeutic efficacy based on the von Frey scores in Day 19 [1]: 22%

Substance: Fethoc-CC(1O2)T-CA(5)C-CTG(5)-TTA(5)-C(1O2)CA(5)-C-NH2 (CCTCACCTGTTACCAC; splice-switching; all peptide nucleic acid (PNA), [C(1O2)] at 2, 13, [A(5)] at 5, 12, 15, [G(5)] at 9, 5' {Fethoc}, 3' {NH2}; peptide nucleic acid backbone) [PD-ASO 2]
- average tumor weight in Day 19 ([3]; 2 pmole/Kg): ~0.35 g
- inhibition of tumor growth by weight in Day 19 ([3]; 2 pmole/Kg): ~70%
- inhibition of tumor growth (tumor volume) in Day 19 [3, 4]: ~55%
- tumor volume in Day 19 [3, 4]: ~375 mm^3
- antitumor activity (tumor volume) ([3]; 10 pmole/Kg, whole period): marginal without significance
- antitumor activity (tumor volume) ([3]; 50 pmole/Kg, Day 10 to Day 17): comparable to that of the 2 pmole/Kg group
- antitumor activity (tumor volume) ([3]; 50 pmole/Kg, Day 19): disappeared in Day 19
